Reference: US20100260825A1, “Antifolates for the treatment of cardiovascular, inflammatory, neoplastic, autoimmune and related diseases in sublingual dosage units, film strips, or skin patches” (priority 2009, published 2010)

What was measured:
[1] = system: CCRF-CEM; test: Growth inhibition of human tumor cells in culture, CCRF-CEM (Leukemia); format: cell-based
From the text: (§1) The preceding data summarize the ability of compound 2 to inhibit 50% of the growth of selected tumor cells in culture. The values are expressed as Log10 GI50 values all of which are lower than 10^−8 M. In the same table a comparison is made of the respective values of TGI (Total Growth Inhibition) for 2 and methotrexate.

[2] = system: MOLT-4; test: Growth inhibition of human tumor cells in culture, MOLT-4 (Leukemia); format: cell-based
From the text: as §1

[3] = system: RPMI 8226; test: Growth inhibition of human tumor cells in culture, RPMI 8226 (Leukemia); format: cell-based
From the text: as §1

[4] = system: SR; test: Growth inhibition of human tumor cells in culture, SR (Leukemia); format: cell-based
From the text: as §1

[5] = system: K562; test: Growth inhibition of human tumor cells in culture, K562 (Leukemia); format: cell-based
From the text: as §1

[6] = system: SF 539; test: Growth inhibition of human tumor cells in culture, SF 539 (CNS Cancer); format: cell-based
[7] = system: Human HCT-8 Colon Xenograft; test: Antitumor activity in nude mice bearing human HCT-8 colon xenograft; format: in vivo; conditions: i.v. push daily × 5
[8] = Toxicity (maximum tolerated dose), i.v. push daily × 5 in nude mice; format: in vivo; conditions: i.v. push daily × 5, nude mice bearing HCT-8 xenograft
[9] = Bioavailability / absorption of oral methotrexate in patients; format: in vivo, human; conditions: oral dosage form, group of arthritic patients (Example-2)
[10] = system: patients with rheumatoid arthritis; test: Conventional therapy of rheumatoid arthritis with methotrexate in patients; format: in vivo, human
[11] = oral dosage form; cited from earlier work
[12] = cited from earlier work
[13] = system: aldehyde oxidase; conditions: cited from earlier work
[14] = cited from earlier work; remark: listed apart in the source
[15] = Hypothetical ADMEP and Phase-I-II study of compound 1 (Example-3); format: in vivo, humans; conditions: 1.5 mg from the gut to the plasma three times a day (4.5 mg/24 hours)
Procedure: Based on ADMEP (Absorption, Distribution, Metabolism, Excretion, Pharmacokinetics) studies conducted with analogous compound 1 in animals and humans during pre-clinical investigations and Phase-I-II clinical trials it was determined that an absorption of 1.0 mg of the drug from the gut to plasma three times a day from divided oral dosage units is optimal (3.0 mg/24 hours) in treating the antifolate responsive disease without causing significant toxicity. […] The bioavailability of this drug from the oral dosage unit used was only 10 percent as determined from a Phase-I clinical trial in healthy volunteers. […] The Bioavailability of this new medication was pH dependent due to solubility reasons and therefore it was possible that fluctuations in bioavailability might occur in certain patients as described in example-2. Thus in certain patients taking antacids or drugs such as certain prostaglandin to reduce acid secretion or other unknown factors the pH of the gut might increase to enhance the solubility and thereby increasing the bio-availability to the 15 to 20% range.

[16] = system: patients with rheumatoid arthritis; test: Clinical trial of M-Trex (Mobiletrex) in patients with rheumatoid arthritis, relative to methotrexate; format: in vivo, human; parameters: CRP: unit not given here; conditions: for CRP: plasma C-Reactive Protein
From the text: In 2002; Castaneda and M. Gopal Nair conducted the clinical trial of a metabolism-blocked antifolate Mobileterx in patients with rheumatoid arthritis to evaluate its efficacy relative to the well-known antifolate drug methotrexate. In this pilot study [O. Castaneda and M. Gopal Nair. [The J. Rheumatology.

[17] = system: MCF-7; test: Growth inhibition of human tumor cells in culture, MCF-7 (Breast Cancer); format: cell-based
From the text: as §1

[18] = system: MCF7-ADR-RES; test: Growth inhibition of human tumor cells in culture, MCF7-ADR-RES (Breast Cancer); format: cell-based
From the text: as §1

[19] = system: selected tumor cells in culture; test: Growth inhibition of selected tumor cells in culture (summary); format: cell-based, Human; conditions: all selected tumor cell lines of the table; read-out: GI50 (inhibit 50% of the growth)
From the text: as §1

Compound: CN(Cc1cnc2nc(N)nc(N)c2n1)c1ccc(C(=O)N[C@@H](CCC(=O)O)C(=O)O)cc1 [Methotrexate, reference compound]
- TGI (Total Growth Inhibition) [1]: −3.77
- TGI (Total Growth Inhibition) [2]: −3.55
- TGI (Total Growth Inhibition) [3]: −3.66
- TGI (Total Growth Inhibition) [4]: −3.50
- TGI (Total Growth Inhibition) [5]: −3.30
- TGI (Total Growth Inhibition) [6]: −3.66
- MTGI (%) Maximum Tumor Growth Inhibition (% of control) ([7]; 1.0 mg/kg/day (MTD)): 30.0 ± 9.0%
- T/C % ([7]; 1.0 mg/kg/day (MTD)): 176.92%
- TD (days) Tumor Doubling Time ([7]; 1.0 mg/kg/day (MTD)): 4.6 ± 0.6 days
- MTD at 5 days ([8]; mouse, in vivo, iv): 1 mg/kg/day
- absorption [9]: 20%
- non-responders ([10]; certain patient populations): up to 40%
- drug related toxicity ([10]; some patients): significant drug related toxicity including elevation of liver enzymes
- bioavailability [11]: 20-80%
- adverse effects of overdose ([12]; 60 mg weekly instead of 15 mg weekly, oral tablets, rheumatoid arthritis patient): odynophagia, dysphagia and oesophagitis
- adverse effects of dosing error ([12]; weekly dose taken in error daily or on several days each week): severe unwanted effects, including neutropenia, hepatotoxicity and bone marrow suppression
- aldehyde oxidase mediated oxidative deactivation [13]: efficiently converted to its corresponding 7-hydroxymethotrexate
- solubility [14]: pH dependent

Compound: C=C(CC(NC(=O)c1ccc(CCc2ccc3nc(N)nc(N)c3c2)cc1)C(=O)O)C(=O)O (stereo not shown) [Compound 1, 4′-Methylene-5,8,10-trideazaaminopterin]
- toxicity [15]: unacceptable GI and bone marrow toxicity

Compound: C=C(CC(NC(=O)c1ccc(CCc2ccc3nc(N)nc(N)c3c2)cc1)C(=O)O)C(=O)O (stereo not shown) [Compound 2]
- ESR ([16]; 4 wks): 52.7
- HAQ ([16]; 4 wks): 1.8
- Pa. GA ([16]; 4 wks): 6.0
- Ph. GA ([16]; 4 wks): 6.2
- S. Joints ([16]; 4 wks): 5.6
- T. Joints ([16]; 4 wks): 10.2
- Pain ([16]; 4 wks of treatment, rheumatoid arthritis patients): 4.1
- CRP ([16]; 4 wks): 22.1
- ESR ([16]; 8 wks): 32.7
- HAQ ([16]; 8 wks): 1.6
- Pa. GA ([16]; 8 wks): 6.0
- Pain ([16]; 8 wks): 2.8
- Ph. GA ([16]; 8 wks): 5.0
- S. Joints ([16]; 8 wks): 3.5
- T. Joints ([16]; 8 wks): 7.3
- CRP ([16]; 8 wks): 20.7
- ESR ([16]; 12 wks): 38.3
- HAQ ([16]; 12 wks): 1.4
- Pa. GA ([16]; 12 wks): 5.0
- Pain ([16]; 12 wks): 2.2
- Ph. GA ([16]; 12 wks): 4.5
- S. Joints ([16]; 12 wks): 3.0
- T. Joints ([16]; 12 wks): 5.8
- CRP ([16]; 12 wks): 17.7
- ESR ([16]; 16 wks): 38.6
- HAQ ([16]; 16 wks): 1.4
- Pa. GA ([16]; 16 wks): 3.0
- Pain ([16]; 16 wks): 1.8
- Ph. GA ([16]; 16 wks): 3.0
- S. Joints ([16]; 16 wks): 2.9
- T. Joints ([16]; 16 wks): 5.8
- CRP ([16]; 16 wks): 13.6
- plasma concentration of C-Reactive Protein (CRP) ([16]; as the treatment progressed): consistently decreased
- TGI (Total Growth Inhibition) [1]: <−8.00
- Log10 GI50 ([1]; Log10 of molar concentration): <−8.00
- TGI (Total Growth Inhibition) [2]: −7.40
- Log10 GI50 ([2]; Log10 of molar concentration): <−8.00
- TGI (Total Growth Inhibition) [3]: −7.44
- Log10 GI50 ([3]; Log10 of molar concentration): <−8.00
- TGI (Total Growth Inhibition) [4]: <−8.00
- Log10 GI50 ([4]; Log10 of molar concentration): <−8.00
- TGI (Total Growth Inhibition) [5]: <−8.00
- Log10 GI50 ([5]; Log10 of molar concentration): <−8.00
- TGI (Total Growth Inhibition) [17]: −6.32
- Log10 GI50 ([17]; Log10 of molar concentration): <−8.00
- TGI (Total Growth Inhibition) [18]: −7.26
- Log10 GI50 ([18]; Log10 of molar concentration): <−8.00
- TGI (Total Growth Inhibition) [6]: −6.3
- Log10 GI50 ([6]; Log10 of molar concentration): <−8.00
- GI50 [19]: < 10 nM
- MTGI (%) Maximum Tumor Growth Inhibition (% of control) ([7]; 4.0 mg/kg/day (MTD)): 91.4 ± 2.2%
- T/C % ([7]; 4.0 mg/kg/day (MTD)): 623.08%
- TD (days) Tumor Doubling Time ([7]; 4.0 mg/kg/day (MTD)): 16.2 ± 3.2 days
- Maximum Tolerated dose [8]: M-Trex (4.0 mg/kg/day)
